Assay results from publication PMC6804212, “Chain Substituted Cannabilactones with Selectivity for the CB2 Cannabinoid Receptor” (Molecules, 2019).
Where two headings read alike, the source gives them in different places.

Key:
hCB2 receptor [1] = target: T1, hCB2 receptor (Homo sapiens, UniProt P34972); test: cAMP assay: decrease in forskolin-stimulated cAMP in HEK293 cells stably expressing hCB2; format: cell-based; parameters: expressed in transfected cells; settings: for classification at hCB2: forskolin-stimulated cAMP assay; for E(max): maximum inhibition of forskolin stimulated cAMP levels, as percentage of CP-55,940 response at 500 nM
T1 sequence (P34972 whole entry): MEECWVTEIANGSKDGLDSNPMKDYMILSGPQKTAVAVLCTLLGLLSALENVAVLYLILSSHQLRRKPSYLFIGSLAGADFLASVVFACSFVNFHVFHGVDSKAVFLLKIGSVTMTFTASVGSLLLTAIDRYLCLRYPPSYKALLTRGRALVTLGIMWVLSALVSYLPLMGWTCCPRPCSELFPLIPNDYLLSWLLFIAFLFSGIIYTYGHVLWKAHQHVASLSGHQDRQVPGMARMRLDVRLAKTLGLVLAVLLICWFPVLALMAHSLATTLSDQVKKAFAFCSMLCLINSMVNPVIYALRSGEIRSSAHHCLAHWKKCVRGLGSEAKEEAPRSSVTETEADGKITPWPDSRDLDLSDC
Description: HEK293 cells stably expressing hCB2 receptors were used for the studies. The cAMP assay was carried out using PerkinElmer’s Lance ultra cAMP kit following the protocol of the manufacturer. Briefly, the assays were carried out in 384-well plates using 1000–1500 cells/well. The cells were harvested with non-enzymatic cell dissociation reagent Versene, washed once with HBSS and resuspended in the stimulation buffer. The various concentrations of the test compound (5 μL) in forskolin (2 μM final concentration) containing stimulation buffer were added to the plate followed by the cell suspension (5 μL). Cells were stimulated for 30 min at room temperature. Eu-cAMP tracer working solution (5 μL) and Ulight-anti-cAMP working solution (5 μL) were then added to the plate and incubated at room temperature for 60 min. The data were collected on a Perkin-Elmer Envision instrument. The EC50 values were determined by non-linear regression analysis using GraphPad Prism software (GraphPad Software, Inc., San Diego, CA, USA).

rat CB1 receptor = target: T2, rat CB1 receptor (Rattus norvegicus, UniProt P20272); test: Radioligand competition binding, [3H]CP-55,940, rat brain membranes
T2 construct: membrane preparations from rat brain; from tissue; host or cells: rat brain membranes
T2 sequence (P20272 whole entry): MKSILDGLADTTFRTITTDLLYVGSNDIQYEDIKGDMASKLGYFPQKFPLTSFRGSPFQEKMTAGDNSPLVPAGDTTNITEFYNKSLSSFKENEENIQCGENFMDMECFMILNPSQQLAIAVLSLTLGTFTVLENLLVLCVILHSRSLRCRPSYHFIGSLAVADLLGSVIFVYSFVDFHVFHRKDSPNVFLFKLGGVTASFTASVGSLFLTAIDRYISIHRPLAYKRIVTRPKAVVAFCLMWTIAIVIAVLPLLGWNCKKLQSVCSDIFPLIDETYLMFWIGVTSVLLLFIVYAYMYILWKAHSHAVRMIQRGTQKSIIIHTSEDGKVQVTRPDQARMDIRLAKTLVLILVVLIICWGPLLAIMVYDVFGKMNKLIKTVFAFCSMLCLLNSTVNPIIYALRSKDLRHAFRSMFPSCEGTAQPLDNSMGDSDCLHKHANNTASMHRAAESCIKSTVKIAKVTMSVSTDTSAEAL
Description: (§1) Inhibition constant values (Ki) from the respective competition binding curves are listed in Table 1 in which our first generation cannabilactone analog AM1714 is included for comparison. The current data of AM1714 for mCB2 are slightly different when compared to those we published earlier. This is because the compound was first assayed in a different mCB2 receptor preparation, e.g., mouse spleen membrane.
(§2) Results from the competition assays were analyzed using nonlinear regression to determine the IC50 values for the ligand [59]; Ki values were calculated from the IC50 (Prism by GraphPad Software, Inc.). Each experiment was performed in triplicate and Ki values determined from three independent experiments and are expressed as the mean of the three values.

mouse CB2 receptor = target: T3, mouse CB2 receptor (Mus musculus, UniProt P47936); test: Radioligand competition binding, [3H]CP-55,940, membranes from HEK293 cells expressing mouse CB2; settings: for rCB1/mCB2: ratio of Ki values, rCB1 over mCB2; for selectivity for mCB2 over rCB1: from Ki values
T3 construct: expressed in transfected cells; host or cells: HEK293
T3 sequence (P47936 whole entry): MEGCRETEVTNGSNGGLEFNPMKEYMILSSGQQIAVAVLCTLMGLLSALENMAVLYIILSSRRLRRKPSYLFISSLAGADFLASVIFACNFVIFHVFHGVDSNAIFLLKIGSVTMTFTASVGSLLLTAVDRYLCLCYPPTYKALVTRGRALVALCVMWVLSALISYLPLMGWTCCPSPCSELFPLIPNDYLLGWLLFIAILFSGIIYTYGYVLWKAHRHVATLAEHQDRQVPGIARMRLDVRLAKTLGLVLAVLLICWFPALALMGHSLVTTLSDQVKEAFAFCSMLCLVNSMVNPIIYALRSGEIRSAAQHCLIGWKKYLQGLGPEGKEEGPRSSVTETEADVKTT
Description: as §1, §2

hCB2 receptor [2] = target: T1, hCB2 receptor; test: Radioligand competition binding, [3H]CP-55,940, membranes from HEK293 cells expressing human CB2; parameters: expressed in transfected cells; host or cells: HEK293; settings: for greater affinity for mCB2 than for hCB2: from Ki values; for hCB2/mCB2 / rCB1/hCB2: ratio of Ki values; for hCB2/mCB2: hCB2 over mCB2; for rCB1/hCB2: rCB1 over hCB2; for Ki: read-out: Ki hCB2
Description: Indeed, in our original work on the cannabilactone class of compounds, we have identified species-specific variation in CB2 affinity. For this reason, the key compounds were also assayed using membranes from HEK293 cells expressing human CB2 (hCB2).
as §2

With `CCCCCCC(C)(C)c1cc(O)c2c(c1)oc(=O)c1ccc(OC)cc12` [Compound 1a] as the molecule, how does the EC50 (hCB2 receptor [1]) read?
Its EC50 is 10.5 ± 2.5 nM.

What about the “classification at hCB2” value (hCB2 receptor [1]) of the same molecule?
Its value is “agonist”.

And the “E(max)” value (hCB2 receptor [1])?
Its value is 73%.

For `O=c1oc2cc(C3(CCCCBr)CCCC3)cc(O)c2c2cc(O)ccc12` [Compound 3a, 3-[1-(4-Bromobutyl)cyclopentyl]-1,9-dihydroxy-6H-dibenzo[b,d]pyran-6-one], which Ki (rat CB1 receptor; read-out: Ki rCB1) is on record?
The Ki was 390 ± 132 nM.

What about the Ki (mouse CB2 receptor) of the same molecule?
Its Ki is 20.8 ± 5.9 nM.

And the rCB1/mCB2 (mouse CB2 receptor)?
The rCB1/mCB2 was 18.8.

And the melting point?
The melting point was 96 to 98 °C.

Which Ki (rat CB1 receptor; read-out: Ki rCB1) does the source give for `O=c1oc2cc(C3(CCCBr)CCCC3)cc(O)c2c2cc(O)ccc12` [Compound 3c, 3-[1-(3-Bromopropyl)cyclopentyl]-1,9-dihydroxy-6H-dibenzo[b,d]pyran-6-one] here?
Its Ki is 405 ± 122 nM.

And the Ki (mouse CB2 receptor)?
The Ki was 24.3 ± 3.9 nM.

What does the source list for `CC(C)N(C(=O)c1ccc(O)cc1-c1c(O)cc(C2(CCCCCBr)CCCC2)cc1O)C(C)C` [Compound 23b, 4′-[1-(5-Bromopentyl)cyclopentyl]-2′,5,6′-trihydroxy-N,N-diisopropyl-[1,1′-biphenyl]-2-carboxamide]?
Ki (rat CB1 receptor; read-out: Ki rCB1): 745 ± 215 nM; Ki (mouse CB2 receptor): 17.4 ± 4.8 nM; rCB1/mCB2 (mouse CB2 receptor): 42.8; melting point: 190 to 192 °C

With `CCCCCCC1(c2cc(O)c(-c3cc(O)ccc3C(=O)N(C(C)C)C(C)C)c(O)c2)CCCC1` [Compound 23d, 4′-(1-Hexyl-cyclopentyl)-2′,5,6′-trihydroxy-N,N-diisopropyl-[1,1′-biphenyl]-2-carboxamide] as the molecule, how does the Ki (rat CB1 receptor; read-out: Ki rCB1) read?
Its Ki is 341 ± 100 nM.

What about the Ki (mouse CB2 receptor) of the same molecule?
Its Ki is 5.7 ± 1.5 nM.

And the “selectivity for mCB2 over rCB1” value (mouse CB2 receptor)?
Its value is 60 fold.

What about the rCB1/mCB2 (mouse CB2 receptor) of the same molecule?
Its rCB1/mCB2 is 59.8.

What about the melting point of the same molecule?
Its melting point is 185 to 187 °C.

And the “response in hCB2 cAMP assay” value (hCB2 receptor [1]; concentrations up to 2 μM)?
Its value is “failed to show any responses”.

With `N#CCCCC1(c2cc(O)c3c(c2)oc(=O)c2ccc(O)cc23)CCCC1` [Compound 3g, 3-[1-(3-Cyanopropyl)cyclopentyl]-1,9-dihydroxy-6H-dibenzo[b,d]pyran-6-one] as the molecule, how does the Ki (rat CB1 receptor; read-out: Ki rCB1) read?
Its Ki is 290 ± 64 nM.

What about the Ki (mouse CB2 receptor) of the same molecule?
The Ki was 17.9 ± 5.8 nM.

And the rCB1/mCB2 (mouse CB2 receptor)?
The rCB1/mCB2 was 16.2.

And the melting point?
The melting point was 118 to 120 °C.

Which results are given for `O=c1oc2cc(C3(CCCCCBr)CCCC3)cc(O)c2c2cc(O)ccc12` [Compound 3b, 3-[1-(5-Bromopentyl)cyclopentyl]-1,9-dihydroxy-6H-dibenzo[b,d]pyran-6-one]?
Ki (rat CB1 receptor; read-out: Ki rCB1): 370 ± 130 nM; Ki (mouse CB2 receptor): 16.3 ± 5.2 nM

Which results are given for `CC(C)N(C(=O)c1ccc(O)cc1-c1c(O)cc(C2(CCCBr)CCCC2)cc1O)C(C)C` [Compound 23c, 4′-[1-(3-Bromopropyl)cyclopentyl]-2′,5,6′-trihydroxy-N,N-diisopropyl-[1,1′-biphenyl]-2-carboxamide]?
Ki (rat CB1 receptor; read-out: Ki rCB1): 229 ± 70 nM; Ki (mouse CB2 receptor): 10.5 ± 3.5 nM; rCB1/mCB2 (mouse CB2 receptor): 21.8; melting point: 178 to 180 °C

For `N#CCCCCC1(c2cc(O)c3c(c2)oc(=O)c2ccc(O)cc23)CCCC1` [Compound 3e, 3-[1-(4-Cyanobutyl)cyclopentyl]-1,9-dihydroxy-6H-dibenzo[b,d]pyran-6-one], which Ki (rat CB1 receptor; read-out: Ki rCB1) is on record?
The Ki was 304 ± 73 nM.

And the Ki (mouse CB2 receptor)?
The Ki was 11.8 ± 4.1 nM.

And the rCB1/mCB2 (mouse CB2 receptor)?
Its rCB1/mCB2 is 25.7.

And the melting point?
Its melting point is 138 to 140 °C.

For `CCCCCCC(C)(C)c1cc(O)c2c(c1)oc(=O)c1ccc(O)cc12` [Compound 1b, reference compound], which Ki (rat CB1 receptor) is on record?
The Ki was 100 ± 24 nM.

And the “selectivity for mCB2 over rCB1” value (mouse CB2 receptor)?
Its value is 21- to 32 fold.

What about the rCB1/mCB2 (mouse CB2 receptor) of the same molecule?
The rCB1/mCB2 was 21.3.

And the Ki (mouse CB2 receptor; read-out: Ki mCB2)?
The Ki was 4.7 ± 1.8 nM.

What about the EC50 (hCB2 receptor [1]) of the same molecule?
Its EC50 is 36.9 ± 6.8 nM.

What about the “classification at hCB2” value (hCB2 receptor [1]) of the same molecule?
The value was “agonist”.

And the “E(max)” value (hCB2 receptor [1])?
The value was 77%.

What about the “greater affinity for mCB2 than for hCB2” value (hCB2 receptor [2]) of the same molecule?
The value was 18 fold.

What about the hCB2/mCB2 (hCB2 receptor [2]) of the same molecule?
Its hCB2/mCB2 is 17.7.

And the rCB1/hCB2 (hCB2 receptor [2])?
Its rCB1/hCB2 is 1.2.

What about the Ki (hCB2 receptor [2]) of the same molecule?
Its Ki is 83.6 ± 23.2 nM.

For `CCCCCCC1(c2cc(O)c3c(c2)oc(=O)c2ccc(O)cc23)CCCC1` [Compound 3d, 3-(1-Hexyl-cyclopentyl]-1,9-dihydroxy-6H-dibenzo[b,d]pyran-6-one], which Ki (rat CB1 receptor) is on record?
The Ki was 266 ± 58 nM.

What about the “selectivity for mCB2 over rCB1” value (mouse CB2 receptor) of the same molecule?
Its value is 21- to 32 fold.

What about the rCB1/mCB2 (mouse CB2 receptor) of the same molecule?
Its rCB1/mCB2 is 31.7.

And the Ki (mouse CB2 receptor; read-out: Ki mCB2)?
The Ki was 8.4 ± 2.5 nM.

And the melting point?
The melting point was 153 to 155 °C.

What about the “greater affinity for mCB2 than for hCB2” value (hCB2 receptor [2]) of the same molecule?
Its value is 3 fold.

And the hCB2/mCB2 (hCB2 receptor [2])?
The hCB2/mCB2 was 3.3.

And the rCB1/hCB2 (hCB2 receptor [2])?
Its rCB1/hCB2 is 9.5.

And the Ki (hCB2 receptor [2])?
Its Ki is 28 ± 9.7 nM.

With `N#CCCCCCC1(c2cc(O)c3c(c2)oc(=O)c2ccc(O)cc23)CCCC1` [Compound 3f, 3-[1-(5-Cyanopentyl)cyclopentyl]-1,9-dihydroxy-6H-dibenzo[b,d]pyran-6-one] as the molecule, how does the Ki (rat CB1 receptor) read?
The Ki was 640 ± 152 nM.

And the Ki (mouse CB2 receptor; read-out: Ki mCB2)?
Its Ki is 4.9 ± 1.2 nM.

What about the EC50 (hCB2 receptor [1]) of the same molecule?
The EC50 was 3.7 ± 1.5 nM.

And the “classification at hCB2” value (hCB2 receptor [1])?
Its value is “agonist”.

And the “classification at hCB2” value (hCB2 receptor [1]; listed as AM4346)?
Its value is “potent CB2 agonist”.

What about the “E(max)” value (hCB2 receptor [1]) of the same molecule?
The value was 89%.

And the “greater affinity for mCB2 than for hCB2” value (hCB2 receptor [2])?
The value was 7 fold.

What about the Ki (hCB2 receptor [2]) of the same molecule?
Its Ki is 33.8 ± 10.4 nM.

For `CC(C)N(C(=O)c1ccc(O)cc1-c1c(O)cc(C2(CCCCBr)CCCC2)cc1O)C(C)C` [Compound 23a, 4′-[1-(4-Bromobutyl)cyclopentyl]-2′,5,6′-trihydroxy-N,N-diisopropyl-[1,1′-biphenyl]-2-carboxamide], which Ki (rat CB1 receptor; read-out: Ki rCB1) is on record?
Its Ki is 702 ± 220 nM.

What about the Ki (mouse CB2 receptor) of the same molecule?
The Ki was 22.4 ± 4.5 nM.

What about the rCB1/mCB2 (mouse CB2 receptor) of the same molecule?
Its rCB1/mCB2 is 31.3.

What about the melting point of the same molecule?
Its melting point is 183 to 185 °C.
